Data: US20200270309A1, “MALEIMIDE GROUP-MODIFIED ANGIOGENESIS INHIBITOR HM-1 AND USE THEREOF” (NANJING ANJI BIOLOGICAL TECHNOLOGY CO., LTD, priority 2017, published 2020)
Marks after values point to notes of the source that are not given here. Peptide text beside a SMILES is read from it. * marks the point of attachment. X74 = O=C1C=CC(=O)N1c1cccc(CCCCCCCCCCC(=O)*)c1; X64 = O=C1C=CC(=O)N1c1cccc(CCCCCCCCCC(=O)*)c1; X59 = O=C1C=CC(=O)N1c1cccc(CCCCCCCCC(=O)*)c1; X66 = O=C1C=CC(=O)N1c1cccc(CCCCCCCC(=O)*)c1

Assays:
[1] = tested on: carrageenan-induced toe swelling; assay: Carrageenan-induced toe swelling in rats; assay type: in vivo; details: SD rats; for Swelling degree 1 h: 1 h after carrageenan; for Swelling degree 3 h: 3 h after carrageenan; for Swelling degree 5 h: 5 h after carrageenan; for Swelling degree 7 h: 7 h after carrageenan
Procedure, shortened: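 Paw swelling, in mL, is the post-inflammation minus pre-inflammation volume of the right hind foot, read as overflow liquid when immersed to a pen-marked joint. Treatment was daily injection over 3 d; model group received saline of the same volume.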

[2] = tested on: choroidal neovascularization; assay: Choroidal neovascularization in rats (laser photocoagulation, FFA); assay type: in vivo; details: BN rats
Procedure, shortened: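 Male BN rats aged 6-8 weeks were given 8 krypton-laser spots around the optic disc (647.1 nm, 350 mW, 50 μm, 0.05 s). Once the model was confirmed, groups of 5 got daily intravitreal compound at 0.05 μM or saline for 1 week. FFA followed at 3, 7, 14 and 28 days after dosing.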

[3] = tested on: IL-1β production by mouse peritoneal macrophages; assay: IL-1β production by mouse peritoneal macrophages (ELISA); assay type: cell-based; details: for Inhibition rate: IL-1β production, vs model group; for IL-1β: mouse peritoneal macrophages, 48 h, ELISA
Procedure, shortened: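 Peptides tested at three concentration levels on adherent peritoneal macrophages harvested from mice 3 days after i.p. 6% starch broth, plated at 2×10^6 cells/mL. After 48 h culture with Dex as reference, IL-1β in supernatants was quantified.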

[4] = tested on: HUVECs; assay: Transwell migration inhibition on HUVECs; assay type: cell-based, human; details: for Inhibition rate (%): HUVEC migration vs blank control; for Cell migration number (Mean ± SD): HUVECs, transwell, 24 h
[5] = tested on: xylene-induced ear swelling; assay: Xylene-induced mouse ear swelling; assay type: in vivo; details: Kunming mice, injected once a day for 5 days; for Swelling degree (mg) / Swelling degree: right minus left ear piece weight 2 h after xylene; for Inhibition rate (%): xylene-induced ear swelling
Procedure, shortened: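 Ear pieces punched and weighed 2 h after xylene (0.05 mL, right ear only; left ear as normal) gave swelling degree (right − left weight) and swelling rate (degree/left weight ×100%). Kunming mice received injections daily for 5 consecutive days, xylene applied 1 h after final dose.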

[6] = day 3 after administration, total light spot number was 297, 0.05 μM in the vitreous chamber once a day for 1 week
[7] = day 7 after administration, total light spot number was 186, 0.05 μM in the vitreous chamber once a day for 1 week
[8] = day 14 after administration, total light spot number was 137, 0.05 μM in the vitreous chamber once a day for 1 week
[9] = day 28 after administration, total light spot number was 69, 0.05 μM in the vitreous chamber once a day for 1 week

Row | SMILES | Swelling degree 1 h ([1]; 2.0 mg/kg once a day for 3 d) [mg] | Swelling degree 3 h ([1]; 2.0 mg/kg once a day for 3 d) [mg] | Swelling degree 5 h ([1]; 2.0 mg/kg once a day for 3 d) [mg] | Swelling degree 7 h ([1]; 2.0 mg/kg once a day for 3 d) [mg] | Swelling degree 1 h ([1]; 4.0 mg/kg once a day for 3 d) [mg] | Swelling degree 3 h ([1]; 4.0 mg/kg once a day for 3 d) [mg] | Swelling degree 5 h ([1]; 4.0 mg/kg once a day for 3 d) [mg] | Swelling degree 7 h ([1]; 4.0 mg/kg once a day for 3 d) [mg] | CNV Incidence (%) [2, 6] [%] | Leakage Light spot number [2, 6] | CNV Incidence (%) [2, 7] [%] | Leakage Light spot number [2, 7] | CNV Incidence (%) [2, 8] [%] | Leakage Light spot number [2, 8] | CNV Incidence (%) [2, 9] [%] | Leakage Light spot number [2, 9] | Inhibition rate ([3]; dose 0.05 μM) [%] | IL-1β ([3]; dose 0.05 μM) [pg/mL] | Inhibition rate ([3]; dose 0.1 μM) [%] | IL-1β ([3]; dose 0.1 μM) [pg/mL] | further results
1 | C[C@H](NC(=O)CNC(=O)[C@H](CCCNC(=N)N)NC(=O)CCCCCCCc1cccc(N2C(=O)C=CC2=O)c1)C(=O)N[C@@H](CC(=O)O)C(=O)N[C@@H](CCCNC(=N)N)C(=O)N[C@@H](C)C(=O)NCC(=O)NCC(=O)NCC(=O)NCC(=O)N[C@@H](CCCNC(=N)N)C(=O)NCC(=O)N[C@@H](CC(=O)O)C(=O)O [X31] (X66-RGADRAGGGGRGD-OH) | 0.23 ± 0.18 | 0.37 ± 0.12 | 0.38 ± 0.16 | 0.33 ± 0.11 | 0.22 ± 0.12 | 0.36 ± 0.16 | 0.38 ± 0.15 | 0.35 ± 0.14 | 53.54 | 159 | 46.77 | 87 | 41.61 | 57 | 44.93 | 31 | 15.28 | 797.34 ± 10.46 | 18.74 | 764.81 ± 19.08 | Inhibition rate ([3]; dose 0.2 μM): 23.12%; IL-1β ([3]; dose 0.2 μM): 723.57 ± 18.58 pg/mL; Inhibition rate (%) ([4]; dose 0.05 μM): 40.18%; Inhibition rate (%) ([4]; dose 0.1 μM): 46.67%; Inhibition rate (%) ([4]; dose 0.2 μM): 55.21%; Cell migration number (Mean ± SD) ([4]; dose 0.05 μM): 641.17 ± 61.85; Cell migration number (Mean ± SD) ([4]; dose 0.1 μM): 571.62 ± 42.83; Cell migration number (Mean ± SD) ([4]; dose 0.2 μM): 480.05 ± 67.72; Swelling degree (mg) ([5]; dose 4 mg/kg): 4.22 ± 0.51** mg; Inhibition rate (%) ([5]; dose 4 mg/kg): 32.26%; Swelling degree (mg) ([5]; dose 8 mg/kg): 5.18 ± 0.71** mg; Inhibition rate (%) ([5]; dose 8 mg/kg): 49.28%
2 | C[C@H](NC(=O)CNC(=O)[C@H](CCCNC(=N)N)NC(=O)CCCCCCCCc1cccc(N2C(=O)C=CC2=O)c1)C(=O)N[C@@H](CC(=O)O)C(=O)N[C@@H](CCCNC(=N)N)C(=O)N[C@@H](C)C(=O)NCC(=O)NCC(=O)NCC(=O)NCC(=O)N[C@@H](CCCNC(=N)N)C(=O)NCC(=O)N[C@@H](CC(=O)O)C(=O)O [X32] (X59-RGADRAGGGGRGD-OH) | 0.25 ± 0.18 | 0.35 ± 0.13 | 0.36 ± 0.12 | 0.31 ± 0.17 | 0.24 ± 0.14 | 0.33 ± 0.17 | 0.41 ± 0.15 | 0.35 ± 0.12 | 54.21 | 161 | 46.24 | 86 | 43.07 | 59 | 42.03 | 29 | 18.02 | 771.56 ± 13.41 | 28.17 | 676.06 ± 19.82 | Inhibition rate ([3]; dose 0.2 μM): 43.31%; IL-1β ([3]; dose 0.2 μM): 533.56 ± 18.54 pg/mL; Inhibition rate (%) ([4]; dose 0.05 μM): 41.92%; Inhibition rate (%) ([4]; dose 0.1 μM): 47.67%; Inhibition rate (%) ([4]; dose 0.2 μM): 56.61%; Cell migration number (Mean ± SD) ([4]; dose 0.05 μM): 622.57 ± 49.41; Cell migration number (Mean ± SD) ([4]; dose 0.1 μM): 560.86 ± 50.91; Cell migration number (Mean ± SD) ([4]; dose 0.2 μM): 465.06 ± 48.23; Swelling degree ([5]; dose 2 mg/kg): 5.17 ± 0.06 mg; Inhibition rate (%) ([5]; dose 2 mg/kg): 17.01%; Swelling degree (mg) ([5]; dose 4 mg/kg): 4.83 ± 0.02* mg; Inhibition rate (%) ([5]; dose 4 mg/kg): 22.47%; Swelling degree (mg) ([5]; dose 8 mg/kg): 3.69 ± 0.56** mg; Inhibition rate (%) ([5]; dose 8 mg/kg): 40.77%
3 | C[C@H](NC(=O)CNC(=O)[C@H](CCCNC(=N)N)NC(=O)CCCCCCCCCc1cccc(N2C(=O)C=CC2=O)c1)C(=O)N[C@@H](CC(=O)O)C(=O)N[C@@H](CCCNC(=N)N)C(=O)N[C@@H](C)C(=O)NCC(=O)NCC(=O)NCC(=O)NCC(=O)N[C@@H](CCCNC(=N)N)C(=O)NCC(=O)N[C@@H](CC(=O)O)C(=O)O [X33] (X64-RGADRAGGGGRGD-OH) | 0.22 ± 0.13 | 0.37 ± 0.11 | 0.42 ± 0.17 | 0.35 ± 0.13 | 0.25 ± 0.14 | 0.31 ± 0.13 | 0.44 ± 0.19 | 0.33 ± 0.18 | 54.21 | 161 | 46.24 | 86 | 45.26 | 62 | 37.68 | 26 | 25.68 | 699.41 ± 11.17 | 34.80 | 613.62 ± 19.23 | Inhibition rate ([3]; dose 0.2 μM): 36.96%; IL-1β ([3]; dose 0.2 μM): 593.32 ± 11.64 pg/mL; Inhibition rate (%) ([4]; dose 0.05 μM): 42.63%; Inhibition rate (%) ([4]; dose 0.1 μM): 47.45%; Inhibition rate (%) ([4]; dose 0.2 μM): 54.20%; Swelling degree ([5]; dose 2 mg/kg): 3.22 ± 0.59 mg; Inhibition rate (%) ([5]; dose 2 mg/kg): 17.34%; Swelling degree (mg) ([5]; dose 4 mg/kg): 5.15 ± 0.19* mg; Inhibition rate (%) ([5]; dose 4 mg/kg): 29.21%; Swelling degree (mg) ([5]; dose 8 mg/kg): 4.41 ± 0.9** mg; Inhibition rate (%) ([5]; dose 8 mg/kg): 48.31%
4 | C[C@H](NC(=O)CNC(=O)[C@H](CCCNC(=N)N)NC(=O)CCCCCCCCCCc1cccc(N2C(=O)C=CC2=O)c1)C(=O)N[C@@H](CC(=O)O)C(=O)N[C@@H](CCCNC(=N)N)C(=O)N[C@@H](C)C(=O)NCC(=O)NCC(=O)NCC(=O)NCC(=O)N[C@@H](CCCNC(=N)N)C(=O)NCC(=O)N[C@@H](CC(=O)O)C(=O)O [X34] (X74-RGADRAGGGGRGD-OH) | 0.26 ± 0.18 | 0.38 ± 0.13 | 0.39 ± 0.11 | 0.35 ± 0.14 | 0.22 ± 0.18 | 0.38 ± 0.15 | 0.36 ± 0.16 | 0.34 ± 0.13 | 52.19 | 155 | 47.31 | 88 | 45.99 | 63 | 42.03 | 29 | 18.47 | 767.28 ± 18.52 | 19.97 | 753.21 ± 13.97 | Inhibition rate ([3]; dose 0.2 μM): 28.14%; IL-1β ([3]; dose 0.2 μM): 676.31 ± 16.02 pg/mL; Inhibition rate (%) ([4]; dose 0.05 μM): 47.95%; Inhibition rate (%) ([4]; dose 0.1 μM): 52.08%; Inhibition rate (%) ([4]; dose 0.2 μM): 53.69%; Cell migration number (Mean ± SD) ([4]; dose 0.05 μM): 557.95 ± 42.69; Cell migration number (Mean ± SD) ([4]; dose 0.1 μM): 513.64 ± 43.27; Cell migration number (Mean ± SD) ([4]; dose 0.2 μM): 496.39 ± 56.37; Swelling degree (mg) ([5]; dose 2 mg/kg): 3.86 ± 0.43** mg; Inhibition rate (%) ([5]; dose 2 mg/kg): 38.04%; Swelling degree (mg) ([5]; dose 4 mg/kg): 3.36 ± 0.53** mg; Inhibition rate (%) ([5]; dose 4 mg/kg): 46.07%; Swelling degree (mg) ([5]; dose 8 mg/kg): 3.2 ± 0.39** mg; Inhibition rate (%) ([5]; dose 8 mg/kg): 48.64%
